Data taken from ChEMBL document CHEMBL1150114, “Isolation and structure of a 20,21-epoxybufenolide series from "Ch'an Su"” (J Nat Prod, 2002).
≈ marks a conversion by molar mass, not a printed value.

Legend:
[1] = tested on: KB; assay: Cytotoxicity against human KB cells after 72 hrs by MTT assay; type: functional, cell-based
[2] = tested on: MH60; assay: Cytotoxicity against mouse MH60 cells after 72 hrs by MTT assay; type: functional, cell-based; details: MH60, 72 h

| SMILES | IC50 [1] [µg/mL] | IC50 [2] [µg/mL] |
| --- | --- | --- |
| C[C@]12CC[C@H](O)C[C@H]1CC[C@@H]1[C@@H]2CC[C@]2(C)[C@@H]([C@]34C=CC(=O)O[C@H]3O4)C[C@H]3O[C@]132 | 8.09 (≈ 20.2 µM) | 1.8 (≈ 4.49 µM) |
| C[C@]12CC[C@H](O)C[C@H]1CC[C@@H]1[C@@H]2CC[C@]2(C)[C@@H]([C@@]34C=CC(=O)O[C@@H]3O4)C[C@H]3O[C@]132 | 10.9 (≈ 27.2 µM) | 1.82 (≈ 4.54 µM) |
| C[C@]12CC[C@H](OC=O)C[C@H]1CC[C@@H]1[C@@H]2CC[C@]2(C)[C@@H]([C@@]34C=CC(=O)O[C@@H]3O4)C[C@H]3O[C@]132 | > 25 | > 25 |
| C[C@]12CCC(=O)C[C@H]1CC[C@@H]1[C@@H]2CC[C@]2(C)[C@@H]([C@@]34C=CC(=O)O[C@@H]3O4)C[C@H]3O[C@]132 | 18.5 (≈ 46.4 µM) | 8.54 (≈ 21.4 µM) |
| C[C@]12CC[C@H](O)C[C@H]1CC[C@@H]1[C@@H]2CC[C@]2(C)[C@@H](c3ccc(=O)oc3)C[C@H]3O[C@]132 [BUFOGENIN] | 1.34 (≈ 3.48 µM) | 10.5 (≈ 27.3 µM) |
| C[C@]12CC[C@H](OC=O)C[C@H]1CC[C@@H]1[C@@H]2CC[C@]2(C)[C@@H]([C@]34C=CC(=O)O[C@H]3O4)C[C@H]3O[C@]132 | > 25 | > 25 |
